target: prion from scrapie infected hamster brain (PrPsc) (Mesocricetus auratus, UniProt P04273)
Sequence (P04273 23-231 limits assumed): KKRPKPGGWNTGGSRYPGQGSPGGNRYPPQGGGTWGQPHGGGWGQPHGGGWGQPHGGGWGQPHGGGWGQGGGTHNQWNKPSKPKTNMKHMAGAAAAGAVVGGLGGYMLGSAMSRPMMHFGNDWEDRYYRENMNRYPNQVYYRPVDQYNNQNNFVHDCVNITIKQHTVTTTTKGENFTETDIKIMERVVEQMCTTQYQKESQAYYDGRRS

| Substance | binding of prion to resin (prion signal in flow through) | prion binding, dependence on copper |
| --- | --- | --- |
| HHHPQT [Peptide 55] | let prion flow through | appears to bind prion only in the absence of copper |
| acetyl (dF)LLHPI [Peptide 76] | failed to bind all prion | – |
| RYHVYF [Peptide 71] | bound all prion | – |
| IQIWIF [Peptide 110] | bound to the column | – |
| GFFFWW [Peptide 89] | bound all prion | – |
| YVFNWY [Peptide 87] | bound all prion | – |

target: prion from infected hamster brain spiked into plasma (Mesocricetus auratus, UniProt P04273)
Sequence (P04273 23-231 limits assumed): as above

| Substance | binding of prion to resin (prion signal in flow through) |
| --- | --- |
| IQIWIF [Peptide 110] | bound all prion |
| acetylated (dR)YHVYF [Peptide 83, reference compound] | bound all prion |
| acetyl (dF)LLHPI [Peptide 75, reference compound] | did not bind prion strongly enough to retain all detectable protein |

target: PrPc from normal brain homogenate (Mesocricetus auratus, UniProt P04273)
Sequence (P04273 23-231 limits assumed): as above

| Substance | PrPc bound to resin (chemiluminescence signal, +3F4 vs -3F4) |
| --- | --- |
| IFFWIK [Peptide 112] | strongest binders |
| LRVIIS [Peptide 96] | much larger signal than the controls |
| VFEYIK [Peptide 115] | strongest binders |
| WLVWIA [Peptide 116] | strongest binders |
| WLYWIP [Peptide 85] | not stable enough to resist the washing protocol |
| RWIISL [Peptide 113] | strongest binders |
| LLIWIP [Peptide 84] | not stable enough to resist the washing protocol |

Source: patent US20040186273A1 (V.I. Technologies, Inc., priority 2000, published 2004)
